Where two headings read alike, the source gives them in different places. Marks after values point to notes of the source that are not given here.
Assays:
bone marrow cells = settings: for P/N: PCE:NCE ratio
Source text: (§1) The experimental animals—Rattus norvegicus (Wistar strain; 8–10 weeks old; 120 ± 20 gm; males only) were acquired from Indian Institute of Integrative Medicine (IIIM-CSIR) (Jammu, India), quarantined, acclimatized and sacrificed as per standard practice conforming to the University Ethical Regulations. After acclimatization, rats were divided into five groups by stratified randomization with five animals per group. […] Distilled water was used to prepare dosing solutions of test agent and injected via intraperitoneal (i.p.) injection. At 24, 48 and 72 h post-dosing, 5 rats per duration were sacrificed and necessary tissues were isolated for different cytogenetic and molecular parameters. For CA assessment, separate experimental lot was used due to colchicine treatment.
MN assay followed the protocol of Schmid. Immediately after sacrificing the animals, both femurs were removed from the pelvic bone and freed from the extra muscles. After cutting the epiphyses, the bone marrow was collected by gentle flushing with 2 mL FBS. Centrifuge cell suspension at 1000 rpm for 5 min and discarded the supernatant. The pellets obtained were saved in 50 μL fresh FBS. Re-suspended the cell pellet and a small drop was spread onto clean grease-free glass slides and dried in air. By using absolute methanol, the smears were fixed for 10min following the staining by May-Grunwald / buffered Giemsa at pH 6.8. Micronuclei and the ratio of polychromatic erythrocyte (PCE) to normochromatic erythrocyte (NCE) i.e., P/N were scored. The micronucleus frequencies (indicated as mean percent micronucleated cells) were examined by considering the micronucleated PCEs number (MNPCEs) from at least 2000 PCEs/animal. Cytotoxic effect of test compound was evaluated by calculating the PCE:NCE ratio in at least 1000 erythrocytes per animal. For final observation, DPX mounted slides were photographed at 100× with oil immersion (Olympus U—PMTV microscope mounted with optical zoom camera).

rat WBCs = settings: Mean ± SD, 40 mg/kgbw; for Sub-G1: cells percentage (apoptosis); for G1 / G2/M / S: cells percentage
Source text: as §1
(§2) WBCs were isolated by following the protocol of Lone et al.. Blood was collected in 0.1% EDTA from retro-orbital plexus of rat, followed by incubation for 30 min. 500 µL of blood was then added to a centrifuge tube with 1 mL FACS lysing solution. The blood was incubated for 10 min and centrifuged (2000 rpm, 10 min) at 25 °C. After discarding the supernatant, pellet was washed in 1mL FACS lysing solution followed by centrifuging at 2000 rpm for 5 min. Repeated this step twice and then pellet was put in 500 µL of PBS, leaving only WBCs.
Post completion of exposures, PBS was used to wash the harvested cells and fixed in cold ethanol (70%) for 48 h. Cells were digested by RNase (400 μg/mL) at 37 °C for 45 min. After incubating the cells with Propidium iodide (10 μg/mL), examined instantly on flow cytometer FACSAriaII (Becton Dickinson, San Jose, CA, USA). A total of 10,000 events were obtained for cell cycle analysis.

Lymphocytes = settings: initial exposure time
Source text: as §1, §2
Protocol of Majeed and colleagues was employed for flow cytometric measurements of change in Ψm. […] Leukocytes were identified via forward and side scatter.

[1] = cited from earlier work

Q: Which results are given for O=P1(N(CCCl)CCCl)NCCCO1 (centres unmarked) [Cyclophosphamide, reference compound]?
A: MNPCE (Mean% ± SD) (bone marrow cells; 40 mg/kgbw i.p., 24 h): 10.6 ± 0.81 %; MNPCE (Mean% ± SD) (bone marrow cells; 40 mg/kgbw i.p., 48 h): 8.2 ± 0.66 %; MNPCE (Mean% ± SD) (bone marrow cells; 40 mg/kgbw i.p., 72 h): 7.1 ± 0.43 %; P/N (bone marrow cells; 40 mg/kgbw i.p., 24 h): 0.604 *; P/N (bone marrow cells; 40 mg/kgbw i.p., 48 h): 0.529 **; P/N (bone marrow cells; 40 mg/kgbw i.p., 72 h): 0.581 **; Sub-G1 (rat WBCs; 24 h): 91.3 ± 4.12 ***^,a; Sub-G1 (rat WBCs; 48 h): 76.3 ± 4.16 ***^,a; Sub-G1 (rat WBCs; 72 h): 98.4 ± 6.01 ***^,a; G1 (rat WBCs; 24 h): 6.06 ± 1.26; G2/M (rat WBCs; 24 h): 2.53 ± 0.06; S (rat WBCs; 24 h): 0.2 ± 0.01; G1 (rat WBCs; 48 h): 21.33 ± 2.41; G2/M (rat WBCs; 48 h): 1.3 ± 0.2; S (rat WBCs; 48 h): 0.06 ± 0.01; G1 (rat WBCs; 72 h): 0.87 ± 0.03; G2/M (rat WBCs; 72 h): 0.4 ± 0.02; S (rat WBCs; 72 h): 0.33 ± 0.11

Q: With CNC(=O)CSP(=S)(OC)OC [DM, 0,0- Dimethyl S-(N-methylcarbamoylmethyl) phosphorodithiote] as the compound, how does the “MNPCE (Mean% ± SD)” value (bone marrow cells; 20 mg/kgbw i.p., 24 h) read?
A: 4.4 ± 0.51 %

Q: And the “MNPCE (Mean% ± SD)” value (bone marrow cells; 20 mg/kgbw i.p., 48 h)?
A: 4.0 ± 0.44 %

Q: And the “MNPCE (Mean% ± SD)” value (bone marrow cells; 20 mg/kgbw i.p., 72 h)?
A: 3.6 ± 0.50 %

Q: What about the “MNPCE (Mean% ± SD)” value (bone marrow cells; 40 mg/kgbw i.p., 24 h) of the same compound?
A: 5.2 ± 0.58 %

Q: What about the “MNPCE (Mean% ± SD)” value (bone marrow cells; 40 mg/kgbw i.p., 48 h) of the same compound?
A: 4.8 ± 0.86 %

Q: And the “MNPCE (Mean% ± SD)” value (bone marrow cells; 40 mg/kgbw i.p., 72 h)?
A: 4.1 ± 0.73 %

Q: What about the “MNPCE (Mean% ± SD)” value (bone marrow cells; 60 mg/kgbw i.p., 24 h) of the same compound?
A: 5.6 ± 0.7%

Q: What about the “MNPCE (Mean% ± SD)” value (bone marrow cells; 60 mg/kgbw i.p., 48 h) of the same compound?
A: 4.9 ± 0.74 %

Q: And the “MNPCE (Mean% ± SD)” value (bone marrow cells; 60 mg/kgbw i.p., 72 h)?
A: 3.8 ± 0.80 %

Q: What about the P/N (bone marrow cells; 20 mg/kgbw i.p., 24 h) of the same compound?
A: 0.740 *

Q: And the P/N (bone marrow cells; 20 mg/kgbw i.p., 48 h)?
A: 0.736 *

Q: What about the P/N (bone marrow cells; 20 mg/kgbw i.p., 72 h) of the same compound?
A: 0.731 *

Q: What about the P/N (bone marrow cells; 40 mg/kgbw i.p., 24 h) of the same compound?
A: 0.728 *

Q: What about the P/N (bone marrow cells; 40 mg/kgbw i.p., 48 h) of the same compound?
A: 0.715 *

Q: What about the P/N (bone marrow cells; 60 mg/kgbw i.p., 24 h) of the same compound?
A: 0.725 *

Q: What about the P/N (bone marrow cells; 60 mg/kgbw i.p., 48 h) of the same compound?
A: 0.721 *

Q: What about the P/N (bone marrow cells; 60 mg/kgbw i.p., 72 h) of the same compound?
A: 0.718 *

Q: And the “maximum MMP loss” value (Lymphocytes; lymphocytes)?
A: greater than 30%

Q: What about the “MMP loss in lymphocytes” value (Lymphocytes; range over increased DM doses) of the same compound?
A: 6.3–32.3%

Q: What about the hazard label [1] of the same compound?
A: Class II, moderately hazardous

Source: paper PMC7712428, “Dimethoate Induces DNA Damage and Mitochondrial Dysfunction Triggering Apoptosis in Rat Bone-Marrow and Peripheral Blood Cells” (Toxics, 2020)
